Source: patent US20090016959A1, “Delivery of antibodies to the central nervous system” (priority 2005, published 2009)
Residues, ends and D or L forms follow the SMILES beside them.

What was measured:
[1] = tested on: bovine brain capillary endothelial cells; test: In vitro BBB model, first level of selection: peptides in lower chamber visualized by Coomassie blue; assay type: in vitro ADME; details: first level of screening; 90 minutes at 37° C
Excerpt: (§1) This BBCEC medium was changed three times a week.
The medium was changed twice a week.

[2] = tested on: bovine brain capillary endothelial cells; test: In vitro BBB model, second screening level with iodinated peptides (cpm ratios); assay type: in vitro ADME
Experimental: as §1
Two iodo-beads were used for each protein.
Results were expressed as cpm ratios. […] The ratio between the number of [^125I]-peptide found in the bottom chamber of filters covered with or without endothelial cells was also calculated (+cells/−cells).

[3] = tested on: in vitro model of the blood brain barrier; test: Transcytosis capacity across the in vitro BBB model (Pe); assay type: in vitro ADME, bovine
Experimental: as §1
Transcytosis capacity of Aprotinin-Paclitaxel conjugate was determined and is reported below in Table 5.

Compound | peptides detected in the lower side of the chambers by Coomassie blue staining [1] | Ratios −cells/initial [2] | Ratios +cells/−cells ([2]; [125I]-peptide in bottom chamber of filters with versus without endothelial cells) | Ratios +cells/initial ([2]; [125I]-peptide, cpm in bottom chamber / total cpm added, filter covered with endothelial cells, 90 minutes at 37° C) | Transcytosis (Pe 10^−3 cm/min) [3]
C[C@@H](O)[C@H](NC(=O)[C@H](CCCCN)NC(=O)[C@H](Cc1ccccc1)NC(=O)[C@H](CC(N)=O)NC(=O)[C@H](CC(N)=O)NC(=O)[C@H](CCCNC(=N)N)NC(=O)[C@H](CCCCN)NC(=O)CNC(=O)[C@H](CCCNC(=N)N)NC(=O)[C@H](CS)NC(=O)[C@H](CS)NC(=O)CNC(=O)[C@H](Cc1ccc(O)cc1)NC(=O)[C@H](Cc1ccccc1)NC(=O)[C@H](Cc1ccccc1)NC(=O)[C@@H](NC(=O)[C@@H](N)CS)[C@@H](C)O)C(=O)N[C@@H](CCC(=O)O)C(=O)N[C@@H](CCC(=O)O)C(=O)N[C@@H](Cc1ccc(O)cc1)C(=O)O [Peptide 71] (H-CTFFYGCCRGKRNNFKTEEY-OH; N-terminus and C-terminus assumed) | detected in the lower side of the chambers | 0.072 | 0.37 | 0.027 | 
aprotinin |  |  |  |  | 0.2 10^−3 cm/min
